Where two headings read alike, the source gives them in different places.
Tests used:
[1] = target: D-2 dopamine receptor; settings: cited from earlier work; for Kd: Table 1, in vitro binding; for affinity for D-2 dopamine receptor / nonspecific binding: rat striatum tissue preparations; for affinity and selectivity to the D-2 dopamine receptor: striatal membrane preparation
[2] = target: T1, dopamine D-2 receptor (Rattus norvegicus, UniProt P61169); assay: Competition binding using [^125 I]IBF, rat striatal membranes; settings: [^125 I]IBF 0.15-0.30 nM, mean ± SEM of three to five determinations
T1 construct: Striatal tissues were excised, pooled and homogenized in 100 volumes (w/v) of ice-cold Tris-HCl buffer; from tissue; host or cells: rat striatum (male Sprague-Dawley), twice-centrifuged membrane homogenate
Experimental: *0.15-0.30 nM [^125 I]IBF was incubated in the presence of the
(§1) indicated compounds in 7-11 concentrations and of membrane preparation
(§2) from rat striatum. Each value represents the mean ± SEM of three to
(§3) Male Sprague-Dawley rats (200-250 g) were decapitated, and the brains were removed and placed in ice. Striatal tissues were excised, pooled and homogenized in 100 volumes (w/v) of ice-cold Tris-HCl buffer (50 mM), pH 7.4. The homogenates were centrifuged at 20,000× g for 20 min. The resultant pellets were rehomogenized in the same buffer and centrifuged again. The final pellets were resuspended in assay buffer containing: 50 mM Tris buffer pH 7.4, 120 mM NaCl, 5 mM KCl, 2 mM CaCl2 and 1 mM MgCl2 and kept at -20° C. for the following binding assay.
(§4) The binding assays were performed by incubating 50 μl of tissue preparations containing 40-60 μg of protein with appropriate amounts of l-125 labeled ligand and competitors in a total volume of 0.2 ml of the assay buffer. After an incubation period of 15 min at 37° C. (with stirring), the samples were rapidly filtered in the cell harvester (Brandel M-24R) under vacuum through Whatman GF/B glass fiber filters pretreated with 0.2% protamine base and washed with 3×5 ml of cold (4° C.) 50 mM Tris-HCl buffer, pH 7.4. […] The filters were counted in a gamma counter (Beckman 5500) at an efficiency of 70%.

[3] = target: T2, D-2 dopamine receptors (Rattus norvegicus, UniProt P61169); assay: Competition binding using [^125 I]IBZM, rat striatal membranes
T2 construct: Striatal tissues were excised, pooled and homogenized in 100 volumes (w/v) of ice-cold Tris-HCl buffer; from tissue; host or cells: rat striatum (male Sprague-Dawley), twice-centrifuged membrane homogenate
Experimental: *0.15-0.4 nM [^125 I]IBZM was incubated in the presence of the
as §1, §2, §3, §4

[4] = tested on: CNS D-2 dopamine receptor; settings: cited from earlier work
[5] = tested on: D-2 dopamine receptor; settings: cited from earlier work; for nonspecific binding: in vitro
[6] = Biodistribution in rats after IV injection; format: in vivo, rat; settings: IV, average of 3 rats ± SD
Experimental: Male Sprague Dawley rats (225-300 g), which were allowed free access to food and water, were used for in vivo biodistribution study. While under halothane anesthesia, 0.2 ml of a saline solution containing [^125 l]IBF, 21, (8-10 μCi) was injected directly into the femoral vein, and the rats were sacrificed at various time points postinjection by cardiac excision under halothane anesthesia. The organs of interest were removed, weighed and the radioactivity was counted using a Beckman gamma automatic counter (Model 4000). The percent dose per organ was calculated by a comparison of the tissue counts to suitably diluted aliquots of the injected material. Total activities of blood and muscle were calculated assuming that they are 7% and 40% of total body weight, respectively.

[7] = target: D-2 dopamine receptor; settings: read-out: IC50 against [H^3]spiperone binding of rat striatal tissue preparation; Table 1 footnote; cited from earlier work
[8] = target: T1, dopamine D-2 receptor; assay: Saturation binding of [^125 I]IBF to rat striatal homogenate in vitro; settings: saturation curve, FIG. 1
Experimental: as §3, §4

[9] = tested on: D-2 dopamine receptor; settings: cited from earlier work
[10] = [^125 I]IBZM 0.15-0.4 nM, mean ± SEM of three to five determinations
[11] = N-methylspiperone imaging agent, determined earlier

T2 sequence (P61169 whole entry): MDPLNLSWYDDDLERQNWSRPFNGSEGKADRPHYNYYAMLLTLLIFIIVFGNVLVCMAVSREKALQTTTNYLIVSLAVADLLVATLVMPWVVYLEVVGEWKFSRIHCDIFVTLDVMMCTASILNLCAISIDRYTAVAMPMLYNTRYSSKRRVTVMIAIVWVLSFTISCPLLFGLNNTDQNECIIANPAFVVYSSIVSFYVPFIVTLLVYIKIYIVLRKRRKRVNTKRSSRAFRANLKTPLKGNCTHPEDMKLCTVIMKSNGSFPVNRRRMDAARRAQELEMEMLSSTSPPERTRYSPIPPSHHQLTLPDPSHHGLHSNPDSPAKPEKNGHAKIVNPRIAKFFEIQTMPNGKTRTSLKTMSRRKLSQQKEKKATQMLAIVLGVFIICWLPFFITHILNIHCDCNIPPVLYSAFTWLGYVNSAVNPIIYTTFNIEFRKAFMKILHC
T1 sequence (P61169 whole entry): as above

**Q.** With `CCN1CCC[C@H]1CNC(=O)c1c(O)c(Cl)cc(Cl)c1OC` [Raclopride] as the compound, how does the Kd [1] read?
**A.** 1.1 nM

**Q.** And the “affinity for D-2 dopamine receptor” value [1]?
**A.** high affinity

**Q.** And the “nonspecific binding” value [1]?
**A.** low nonspecific binding

**Q.** For `CCN1CCC[C@H]1CNC(=O)c1c(OC)ccc(I)c1O` [IBZM], which Kd [1] is on record?
**A.** 0.43 nM

**Q.** And the “affinity and selectivity to the D-2 dopamine receptor” value (“affinity and selectivity” for short) [1]?
**A.** very high affinity and selectivity

**Q.** And the Ki [2]?
**A.** 0.261 ± 0.018 nM

**Q.** For `CCN1CCC[C@H]1CNC(=O)c1cccc2c1OCC2` [Compound 23, 7-N-[(1-ethyl-2-pyrrolidinyl)methyl]carboxamido-2,3-dihydrobenzofuran], which Ki [3, 10] is on record?
**A.** 135 ± 22 nM

**Q.** What about the Ki ([3]; [^125 I]IBZM binding) of the same compound?
**A.** 135 nM

**Q.** What does the source list for `CN1CN(c2ccccc2)C2(CCN(CCCC(=O)c3ccc(F)cc3)CC2)C1=O` [N-methylspiperone]?
**A.** Bmax [4, 11]: 16.6 pmol/g; Kd [4, 11]: 0.097 nM

**Q.** Which nonspecific binding [5] does the source give for `CCN1CCC[C@H]1CNC(=O)c1c(OC)ccc([125I])c1O` [[^125 I]IBZM, reference compound] here?
**A.** 5%

**Q.** What about the Brain uptake ([6]; 2 min) of the same compound?
**A.** 2.87 % Dose/Organ

**Q.** What about the Thyroid uptake ([6]; 60 min) of the same compound?
**A.** 0.1 % Dose/Organ

**Q.** Which Ki [2] does the source give for `NC1CCc2cc(O)c(O)cc2C1` (single isomer, unassigned; (+)) [(+) ADTN,6,7] here?
**A.** 65.7 ± 13 nM

**Q.** What does the source list for `CCN1CCC[C@H]1CNC(=O)c1cc2cc(Br)ccc2cc1OC` [Compound 6, S-(-)-7-Bromo-3-methoxy-N[(1-ethyl-2-pyrrolidinyl)methyl]naphthyl-2-carboxamide]?
**A.** Ki [3, 10]: 82 ± 12 nM; Ki ([3]; [^125 I]IBZM binding): 82 nM

**Q.** For `CCN1CCC[C@H]1CNC(=O)c1cc2cc(Br)ccc2cc1O` [Comparative Cpd. A, reference compound], which Ki [3, 10] is on record?
**A.** 280 ± 47 nM

**Q.** Which “affinity and selectivity” value [1] does the source give for `CCN1CCC[C@H]1CNC(=O)c1cc(I)ccc1OC` [Iodopride] here?
**A.** very high affinity and selectivity

**Q.** What about the IC50 [7] of the same compound?
**A.** 3 nM

**Q.** Which results are given for `CCN1CCC[C@H]1CNC(=O)c1cc(I)cc2c1OCC2` [Compound 21, 5-Iodo-7-N-[(1-ethyl-2-pyrrolidinyl)methyl]carboxamido-2,3-dihydrobenzofuran]?
**A.** Ki [3, 10]: 0.33 ± 0.02 nM; Ki ([3]; [^125 I]IBZM binding): 0.23 nM; times more effective than the bromine atom for increasing competitive binding affinity ([3]; iodo (21) vs bromo (19)): sixteen; nonspecific binding [8]: low nonspecific binding; Ki [2]: 0.085 ± 0.01 nM

**Q.** Which Kd [1] does the source give for `COc1cc(N=[N+]=[N-])c(I)cc1C(=O)NC1CCN(Cc2ccccc2)CC1` [Iodoazidoclebopride] here?
**A.** 14 nM

**Q.** And the “affinity and selectivity” value [1]?
**A.** very high affinity and selectivity

**Q.** Which Ki [3, 10] does the source give for `CCN1CCC[C@H]1CNC(=O)c1c(OC)ccc2ccccc12` [Comparative Cpd. B, 2-Methoxy-N-[(1-ethyl-2-pyrrolidinyl)methyl]naphthyl-1-carboxamide, reference compound] here?
**A.** 507 ± 29 nM

**Q.** Which “D-2 specificity” value [5] does the source give for `O=C(CCCN1CCC2(CC1)C(=O)NCN2c1ccccc1)c1ccc(F)cc1I` [2'-ISP] here?
**A.** excellent D-2 specificity

**Q.** What about the nonspecific binding [5] of the same compound?
**A.** 40%

**Q.** And the Kd ([5]; rat striatum)?
**A.** 0.25 nM

**Q.** With `CCN1CCC[C@H]1CNC(=O)c1cc2cc(I)ccc2cc1OC` [Compound 8, (S)-(-)-7-Iodo-3-methoxy-N-[(1-ethyl-2-pyrrolidinyl)methyl]naphthyl-2-carboxamide] as the compound, how does the Ki [3, 10] read?
**A.** 168 ± 13 nM

**Q.** And the Ki ([3]; [^125 I]IBZM binding)?
**A.** 168 nM

**Q.** For `CCN1CCC[C@H]1CNC(=O)c1cc2ccccc2cc1OC` [Compound 11, (S)-(-)-3-Methoxy-N-[(1-ethyl-2-pyrrolidinyl)methyl]naphthyl-2-carboxamide], which Ki [3, 10] is on record?
**A.** 30 ± 4.2 nM

**Q.** What about the Ki ([3]; [^125 I]IBZM binding) of the same compound?
**A.** 30 nM

**Q.** With `CCN1CCC[C@H]1CNC(=O)c1c(O)cccc1OC` [BZM] as the compound, how does the Kd [1] read?
**A.** 31.1 nM

**Q.** Which results are given for `CCN1CCC[C@H]1CNC(=O)c1c(OC)ccc([123I])c1O` [S-[^123 I]IBZM]?
**A.** basal ganglia uptake, planar imaging ([9]; immediately after intravenous injection, humans): high concentration in basal ganglia of the brain; basal ganglia uptake, SPECT ([9]; normal human brain, 1 hour postinjection): highly specific uptake in the basal ganglia of the brain

**Q.** For `CCN1CCC[C@H]1CNC(=O)c1c(O)c(Cl)cc(Cl)c1O[11CH3]` (racemic) [[^11 C]raclopride], which “affinity constant Kd” value ([4]; living human brain, PET, equilibrium model and Scatchard plots) is on record?
**A.** 7.1 nM

**Q.** And the Bmax ([4]; living human brain, PET)?
**A.** 15 pmol/mL

**Q.** And the “ratio of specific striatal to nonspecific cerebellar binding” value ([4]; living human brain, PET)?
**A.** high ratio

**Q.** With `O=C(c1ccc(F)cc1)C1CCN(CCn2c(=O)[nH]c3ccccc3c2=O)CC1` [Ketanserin] as the compound, how does the Ki [2] read?
**A.** 491 ± 49 nM

**Q.** Which Kd [1] does the source give for `CCc1cc(Cl)c(OC)c(C(=O)NC[C@@H]2CCCN2CC)c1O` [Eticlopride] here?
**A.** 0.17 nM

**Q.** And the “affinity for D-2 dopamine receptor” value [1]?
**A.** high affinity

**Q.** And the “nonspecific binding” value [1]?
**A.** low nonspecific binding

Source: patent US5334728A (The Trustees of The University of Pennsylvania, priority 1992, dated 1994)
